ChEMBL document CHEMBL1131220, “Isosteric analogues of nicotinamide adenine dinucleotide derived from furanfurin, thiophenfurin, and selenophenfurin as mammalian inosine monophosphate dehydrogenase (type I and II) inhibitors” (J Med Chem, 1998)
pKi: −log10 of the molar value.

Tests used:
[1] = biological target: T1, Inosine-5'-monophosphate dehydrogenase 2 (Homo sapiens, UniProt P12268); experiment: The compound was tested for the inhibition towards […] (Nicotinamide adenine dinucleotide) substrate of Inosine-5'-monophosphate dehydrogenase 2
[2] = biological target: T2, Inosine-5'-monophosphate dehydrogenase 1 (Homo sapiens, UniProt P20839); experiment: The compound was tested for the inhibition towards […] (Nicotinamide adenine dinucleotide) substrate of Inosine-5'-monophosphate dehydrogenase 1
T2 sequence (P20839 whole entry): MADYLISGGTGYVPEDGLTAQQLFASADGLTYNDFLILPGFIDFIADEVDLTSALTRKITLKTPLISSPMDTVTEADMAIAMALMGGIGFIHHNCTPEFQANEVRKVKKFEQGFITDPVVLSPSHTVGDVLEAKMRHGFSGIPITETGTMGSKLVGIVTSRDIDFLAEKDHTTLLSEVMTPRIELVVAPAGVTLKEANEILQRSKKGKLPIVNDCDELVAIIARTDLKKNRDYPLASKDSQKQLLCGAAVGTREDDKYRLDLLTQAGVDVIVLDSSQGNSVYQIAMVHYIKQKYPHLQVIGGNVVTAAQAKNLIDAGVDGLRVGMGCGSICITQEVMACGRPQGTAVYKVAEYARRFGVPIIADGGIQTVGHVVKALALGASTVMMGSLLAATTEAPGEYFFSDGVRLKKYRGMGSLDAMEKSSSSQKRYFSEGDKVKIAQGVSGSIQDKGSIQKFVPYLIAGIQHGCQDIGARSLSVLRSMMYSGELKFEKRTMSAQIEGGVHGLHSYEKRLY

[3] = biological target: T2, Inosine-5'-monophosphate dehydrogenase 1; experiment: The compound was tested for the inhibition towards IMP(Inosine 5'-monophosphate) substrate of Inosine-5'-monophosphate dehydrogenase 1
[4] = biological target: T1, Inosine-5'-monophosphate dehydrogenase 2; experiment: The compound was tested for the inhibition towards IMP(Inosine 5'-monophosphate) substrate of Inosine-5'-monophosphate dehydrogenase 2

Structure (SMILES)	pKi [1]	pKi [2]	pKi [3]	pKi [4]
NC(=O)c1coc([C@@H]2O[C@H](COP(=O)(O)OP(=O)(O)OC[C@H]3O[C@@H](n4cnc5c(N)ncnc54)[C@H](O)[C@@H]3O)[C@@H](O)[C@H]2O)c1	4.00	3.87	4.42	4.24
NC(=O)c1c[se]c([C@@H]2O[C@H](COP(=O)(O)OP(=O)(O)OC[C@H]3O[C@@H](n4cnc5c(N)ncnc54)[C@H](O)[C@@H]3O)[C@@H](O)[C@H]2O)c1	6.57	6.59	6.24	5.96
NC(=O)c1csc([C@@H]2O[C@H](COP(=O)(O)OP(=O)(O)OC[C@H]3O[C@@H](n4cnc5c(N)ncnc54)[C@H](O)[C@@H]3O)[C@@H](O)[C@H]2O)c1	6.47	6.47	6.43	6.49
NC(=O)c1c[se]c([C@@H]2O[C@H](COP(=O)(O)OP(=O)(O)OC[C@H]3O[C@@H](n4cnc5c(N)ncnc54)[C@H](O)[C@@H]3O)[C@@H](O)[C@H]2O)n1	7.59	7.21	7.48	7.68
